Reference: patent US9428726B2, “Modified host cells with efflux pumps” (priority 2010, dated 2016)

Tested on: E. coli DH1 ΔacrAB
Conditions: for biofuel level that inhibited growth: added to pooled culture in M9 minimal medium, aimed at an inhibitory concentration that reduced growth by 25%
Description: In order to screen the efflux pump library against a variety of biofuels we devised a competition-based strategy to select for pumps that improved biofuel tolerance (FIG. 1A). Cells containing plasmids with individual pumps were grown separately and then pooled so that all individual strains were represented equally. This pooled culture was then grown both with and without biofuel, and maintained through serial dilutions every 10-14 hours over a total of 96 hours. At each dilution time point, plasmids from each culture were isolated and a custom microarray was used to quantify the amount of each efflux pump plasmid present in the culture (Methods).
Pooled culture glycerol stocks were used to inoculate M9 minimal medium with 30 μg/ml kanamycin and 10 μM IPTG. The culture was then divided into tubes to a final volume of 5 ml and biofuel was added directly to the tubes. All conditions were prepared in triplicate. Cultures were grown at 37° C. with orbital shaking at 200 rpm for all experiments.
Every 10-14 hours the cultures were diluted 1:100 into 5 ml of fresh M9 minimal medium with kanamycin, IPTG, and biofuel (where applicable). For the time-course assay, cultures were spun down at the completion of a growth cycle and plasmids were isolated. For end point competition assays, plasmid was isolated from the culture after 72 hours of serial dilution.
Custom microarrays (NimbleGen, Roche, USA) were used to measure the relative quantities of the efflux pumps present in the plasmid DNA isolated from the competition cultures. Arrays were designed so that they contained probes for all HAE1 annotated efflux pumps from all sequenced bacterial genomes. 12×135K arrays were used to allow for 12 experiments per slide.
Plasmid DNA was labeled and hybridized following the protocol for NimbleGen Comparative Genomic Hybridization Microarrays with minor modifications (Supporting Methods). Data were normalized using the standard settings for RMA analysis in the NimbleScan software. Probe values were averaged using a custom Matlab script (Mathworks, Inc.). […] For the positive hybridization control, all library plasmids were prepared individually and combined in vitro in equal proportions. For the negative hybridization control, a plasmid with the same vector backbone as those in the library, but no efflux pump, was isolated from DH1 ΔacrAB. Both hybridization controls were labeled and hybridized to the array using the methods described above.
This required the use of a co-solvent in order to accurately pipette small volumes. In both cases dimethylformamide (DMF) was used as the co-solvent. […] Other biofuels were added directly without the use of a co-solvent.

In the case of `CN(C)C=O` [DMF, dimethylformamide], the “toxicity limit to E. coli” value (co-solvent amount present in the culture) is reported as > 0.2%.

With `CCCCCC(=O)OCC=C(C)CCC=C(C)CCC=C(C)C` [farnesyl hexanoate] the “biofuel level that inhibited growth” value was 2.5 % v/v.

With `C=C(C)[C@H]1CC=C(C)CC1` [limonene] the “biofuel level that inhibited growth” value was 0.025 % v/v.

In the case of `CC1=CCC2CC1C2(C)C` (stereo not drawn) [α-pinene], the “biofuel level that inhibited growth” value is reported as 2 % v/v.

B1: YP_957870: Marinobacter aqueolei efflux pump, accession of inner membrane protein, SEQ ID NO:1 (protein, listed as Marinobacter aqueolei)
chain: MINFFISRPVFSWVLAIVAMLAGIMAIFVLPVQRYPSVAPPAVEIQADYPGASADTVSNTVVQVIEQEMTGLDNLLYMGSTADSSGHATVTLTFAAGTDPDIAQVQVQNKLKLAEPRLPEVVRQQGISVEKSSTSFLMVMAFVSTDGRLSKLDIADFISSELAEPIGRVTGIGSVQVFGSEYAMRIWLDPSALTNYGLTVADVSAAIEAQNAQVTAGQLGGLPAVEGQQLNATVTAQTLLTSTEEFRNILLKSMPDGSRVRLGDVARVELGGGAVQIDTFYDGEPAAGLGINLAPGANSLAVTEAVKARLQELEPYFPEGVEIRYPYQTAPFVEASIDAVVTTIIEAIALVVLVMLVFLQSWRATLIPAIAIPVVLLGTFAIMAAFGFSINMLTLFGLVLAIGLLVDDAIVVVENVERVMHEDGLSPMEATRKSMGQIASALIGIGVVLSAVFIPMAFFPGSTGAIYRQFSLSIAGAMVLSVLVALILSPMLCGRILKPTHERTLLQKLFGWFEAGLGRLTRGYVRLVGHTARHAWLYTLAFLGIVGLVAVLFVRLPGGFLPAEDQGFAVVQYQLPAGATQQRTIDTIQVIEDYFMDQDEVQGLFTIAGFSFAGRAQNAGLAFVNLKPWSERDPETQSADAIIQRANRALAGLVRDGRAFAFNLPPIPELGQALGFELRLQDRGAIGHEALMAAQGQLLQLAAESPVLTSVRPNGLADNPRYKVDIDYEKAQALGIEPSEISRLLSVTWGSQYVNDFLHEGRVKRVYVQGDAPFRMLPEDFEAWYLRAANGEMTPLSEVTNGRWEYGSPRLERFNGVPSRQIQGEPAPGYSTGEAMAEVERLIAQLPDGVAGAWSGLSYQERQAGAQASLLYALSALVVFLALAALYESWTIPISVMLAVPLGVLGAVLAAMVRGLPNDVFFQVGILTTVGVTARNAILLVEFARSLEDQGMKLIEATKEAARVRLRPILMTSVAFGMGVLPLAFASGAGATTRIAIGTAVLGGMISATILATFFIPLFYVVVRRITDFLSGSRDQDDSAAAAPGRANGGVADDR
In the case of B1, the “outcome of efflux pump in competition” value (2% geranyl acetate, serial dilution competition) is reported as “increase survival”.
